Reference: US20240270821A1, “GIP/GLP1/GCG TRI-RECEPTOR AGONISTS AND USES THEREOF” (priority 2023, published 2024)

Assays:
Format in all cases: cell-based
hGLP-1R [1] = target: T1, hGLP-1R (Homo sapiens, UniProt P43220); experiment: Functional cAMP activity in the presence of 1% HSA; conditions: read-out: cAMP Rel EC50, hGLP-1R
hGcgR = hGcgR (Homo sapiens, UniProt P47871); experiment: Functional cAMP activation in the presence of 0.1% casein (no HSA); conditions: in the presence of 0.1% casein (no HSA); geometric mean; read-out: Relative cAMP EC50, hGcgR;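 also: intracellular cAMP rise after 30 min at 37 °C, read by HTRF against a cAMP standard curve, scaled from buffer only (0%) to maximal control ligand response (100%)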
Chain of hGcgR (P47871 26-477): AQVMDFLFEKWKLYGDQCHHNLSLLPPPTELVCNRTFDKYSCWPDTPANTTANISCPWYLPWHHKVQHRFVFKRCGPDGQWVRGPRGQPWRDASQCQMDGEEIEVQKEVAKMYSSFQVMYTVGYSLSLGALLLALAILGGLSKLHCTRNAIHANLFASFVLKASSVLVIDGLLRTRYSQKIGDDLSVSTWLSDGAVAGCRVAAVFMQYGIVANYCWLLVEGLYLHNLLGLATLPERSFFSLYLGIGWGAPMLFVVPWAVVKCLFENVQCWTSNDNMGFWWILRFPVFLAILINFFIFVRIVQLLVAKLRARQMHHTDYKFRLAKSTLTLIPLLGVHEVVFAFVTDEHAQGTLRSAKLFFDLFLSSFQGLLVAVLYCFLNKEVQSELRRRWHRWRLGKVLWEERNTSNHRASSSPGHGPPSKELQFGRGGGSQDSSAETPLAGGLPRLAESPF

hGIPR [2] = target: T2, hGIPR (Homo sapiens, UniProt P48546); experiment: Functional cAMP activity in the presence of 1% HSA; conditions: read-out: cAMP Rel EC50, hGIPR
T2 sequence (P48546 22-466): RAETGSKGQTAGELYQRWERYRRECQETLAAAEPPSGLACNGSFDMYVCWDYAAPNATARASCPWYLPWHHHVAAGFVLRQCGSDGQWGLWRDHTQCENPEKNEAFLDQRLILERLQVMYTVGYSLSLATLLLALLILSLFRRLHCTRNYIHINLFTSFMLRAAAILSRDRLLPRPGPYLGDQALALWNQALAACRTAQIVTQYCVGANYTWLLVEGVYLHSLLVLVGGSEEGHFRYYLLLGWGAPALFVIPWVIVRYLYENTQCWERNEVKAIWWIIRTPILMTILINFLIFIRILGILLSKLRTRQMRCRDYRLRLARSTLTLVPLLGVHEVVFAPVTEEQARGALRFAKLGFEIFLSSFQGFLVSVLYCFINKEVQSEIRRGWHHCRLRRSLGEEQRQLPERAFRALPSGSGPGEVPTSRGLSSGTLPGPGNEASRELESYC

hGIPR [3] = target: T2, hGIPR; experiment: Functional cAMP activation in the presence of 0.1% casein (no HSA); conditions: in the presence of 0.1% casein (no HSA); geometric mean; read-out: Relative cAMP EC50, hGIPR;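 as to Relative cAMP EC50, hGIPR: intracellular cAMP rise after 30 min at 37 °C read by HTRF against a standard curve, scaled between buffer alone (0%) and top control ligand concentration (100%), four-parameter fit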;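 as to Relative cAMP EC50, hGLP-1R: intracellular cAMP rise after 30 min at 37 °C read by HTRF, normalized between buffer only (0%) and maximal control ligand (100%), four-parameter variable-slope fit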
human GcgR = human GcgR (Homo sapiens, UniProt P47871); experiment: Functional cAMP activity in the presence of 1% HSA; conditions: read-out: cAMP Rel EC50, hGcgR
Chain of human GcgR (P47871 26-477): as the sequence (P47871 26-477) above

hGLP-1R [4] = target: T1, hGLP-1R; experiment: Functional cAMP activation in the presence of 0.1% casein (no HSA); conditions: in the presence of 0.1% casein (no HSA); geometric mean; read-out: Relative cAMP EC50, hGLP-1R;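 as to Relative cAMP EC50, hGIPR: intracellular cAMP rise after 30 min at 37 °C read by HTRF against a standard curve, scaled between buffer alone (0%) and top control ligand concentration (100%), four-parameter fit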;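 as to Relative cAMP EC50, hGLP-1R: intracellular cAMP rise after 30 min at 37 °C read by HTRF, normalized between buffer only (0%) and maximal control ligand (100%), four-parameter variable-slope fit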

T1 sequence (P43220 24-463): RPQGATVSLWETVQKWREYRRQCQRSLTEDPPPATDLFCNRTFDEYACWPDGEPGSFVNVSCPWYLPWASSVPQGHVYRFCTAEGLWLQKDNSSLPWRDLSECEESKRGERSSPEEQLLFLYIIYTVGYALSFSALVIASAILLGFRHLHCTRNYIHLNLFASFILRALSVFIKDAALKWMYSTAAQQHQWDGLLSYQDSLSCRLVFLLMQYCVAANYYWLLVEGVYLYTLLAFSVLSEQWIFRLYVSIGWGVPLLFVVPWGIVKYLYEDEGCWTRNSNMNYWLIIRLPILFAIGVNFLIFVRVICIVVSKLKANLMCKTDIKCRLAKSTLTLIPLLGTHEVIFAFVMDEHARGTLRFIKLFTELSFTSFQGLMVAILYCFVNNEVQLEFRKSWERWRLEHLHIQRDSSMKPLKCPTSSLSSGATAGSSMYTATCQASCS

SMILES	EC50 (hGLP-1R [1]) [nM]	EC50 (hGcgR) [nM]	EC50 (hGIPR [2]) [nM]	EC50 (hGIPR [3]) [nM]	EC50 (human GcgR) [nM]	EC50 (hGLP-1R [4]) [nM]
CC[C@H](C)[C@H](NC(=O)[C@H](Cc1ccccc1)NC(=O)[C@H](C)NC(=O)[C@](C)(Cc1ccncc1)NC(=O)[C@H](CCC(N)=O)NC(=O)[C@H](C)NC(=O)[C@H](CCCCNC(=O)COCCOCCNC(=O)CC[C@H](NC(=O)CC[C@H](NC(=O)CCCCCCCCCCCCCCCCC(=O)O)C(=O)O)C(=O)O)NC(=O)[C@H](CCCN)NC(=O)[C@H](CC(=O)O)NC(=O)[C@H](CC(C)C)NC(=O)[C@](C)(CC(C)C)NC(=O)[C@H](CCC(N)=O)NC(=O)[C@H](CO)NC(=O)[C@H](Cc1ccncc1)NC(=O)[C@H](CC(=O)O)NC(=O)[C@H](CO)NC(=O)[C@@H](NC(=O)[C@H](Cc1ccccc1)NC(=O)[C@@H](NC(=O)CNC(=O)[C@H](CCC(N)=O)NC(=O)C(C)(C)NC(=O)[C@@H](N)Cc1ccc(O)cc1)[C@@H](C)O)[C@@H](C)O)C(=O)N[C@@H](CCC(=O)O)C(=O)N[C@@H](Cc1ccc(O)cc1)C(=O)N[C@@H](CC(C)C)C(=O)N[C@H](C(=O)N[C@@H](CCC(=O)O)C(=O)N[C@H](C)C(=O)NCC(=O)N1CCC[C@H]1C(=O)N[C@@H](CO)C(=O)N[C@@H](CO)C(=O)NCC(=O)N[C@@H](C)C(=O)N1CCC[C@H]1C(=O)N1CCC[C@H]1C(=O)N1CCC[C@H]1C(=O)N[C@@H](CCC(=O)O)C(=O)NCC(=O)N[C@@H](CO)C(N)=O)[C@@H](C)CC [Example 1020]	146	5.87	27.3	0.309	478	2.29
CC[C@H](C)[C@H](NC(=O)[C@H](Cc1ccccc1)NC(=O)[C@H](C)NC(=O)[C@](C)(Cc1ccncc1)NC(=O)[C@H](CCC(N)=O)NC(=O)[C@H](C)NC(=O)[C@H](CCCCNC(=O)COCCOCCNC(=O)CC[C@H](NC(=O)CC[C@H](NC(=O)CCCCCCCCCCCCCCCCC(=O)O)C(=O)O)C(=O)O)NC(=O)[C@H](CCCN)NC(=O)[C@H](CC(=O)O)NC(=O)[C@H](CC(C)C)NC(=O)[C@](C)(CC(C)C)NC(=O)[C@H](CCC(N)=O)NC(=O)[C@H](CO)NC(=O)[C@H](Cc1ccncc1)NC(=O)[C@H](CC(=O)O)NC(=O)[C@H](CO)NC(=O)[C@@H](NC(=O)[C@H](Cc1ccccc1)NC(=O)[C@@H](NC(=O)CNC(=O)[C@H](CCC(N)=O)NC(=O)C(C)(C)NC(=O)[C@@H](N)Cc1ccc(O)cc1)[C@@H](C)O)[C@@H](C)O)C(=O)N[C@@H](CCC(=O)O)C(=O)N[C@@H](Cc1ccc(O)cc1)C(=O)N[C@@H](CC(C)C)C(=O)N[C@H](C(=O)N[C@@H](CCC(=O)O)C(=O)N[C@H](C)C(=O)NCC(=O)N1CCC[C@H]1C(=O)N[C@@H](CO)C(=O)N[C@@H](CO)C(=O)NCC(=O)N[C@@H](C)C(=O)N1CCC[C@H]1C(=O)N1CCC[C@H]1C(=O)N1CCC[C@H]1C(=O)N[C@@H](CO)C(=O)NCC(=O)N[C@@H](CO)C(=O)N[C@@H](CCC(=O)O)C(N)=O)[C@@H](C)CC [Example 1022]	203	6.93	27.9	0.35	586	3.28
